# Experimental data as given in the supplement of paper PMC10307832.
# Columns and labels:
# Test in all cases: relative viability (nuclei count vs DMSO), 5 days (fraction); higher = more cells survive
# [1] = tested on: BEN
# Method in brief: (§1)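 Dosing by pin tool came one day after lung cancer cell lines were seeded in 1536-well plates, using either one drug or a fixed anchor-drug dose plus five library-drug doses (not always all listed) in √10 steps. After 5 days, nuclei were counted on 4× images. Relative viability is treated-well nuclei count divided by vehicle-well nuclei count, and values are medians of duplicate plates.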
# [2] = tested on: LK-2
# Method in brief: as §1
# [3] = tested on: SW 1573
# Method in brief: as §1
# [4] = tested on: ChaGo-K-1
# Method in brief: as §1
# [5] = tested on: HCC-78
# Method in brief: as §1
# [6] = tested on: EKVX
# Method in brief: as §1
# [7] = tested on: NCI-H2087
# Method in brief: as §1
# [8] = tested on: HCC-827
# Method in brief: as §1
# [9] = tested on: EPLC-272H
# Method in brief: as §1
# [10] = tested on: NCI-H358
# Method in brief: as §1
# [11] = tested on: LU99A
# Method in brief: as §1
# [12] = tested on: NCI-H727
# Method in brief: as §1
# [13] = tested on: NCI-H1944
# Method in brief: as §1
# [14] = tested on: LOU-NH91
# Method in brief: as §1
# [15] = tested on: EMC-BAC-2
# Method in brief: as §1
# [16] = tested on: RERF-LC-KJ
# Method in brief: as §1
# [17] = tested on: NCI-H1650
# Method in brief: as §1
# [18] = tested on: COR-L 105
# Method in brief: as §1
# [19] = tested on: NCI-H1734
# Method in brief: as §1
# [20] = tested on: LCLC-97TM1
# Method in brief: as §1
# [21] = tested on: SK-MES-1
# Method in brief: as §1
# [22] = tested on: NCI-H2126
# Method in brief: as §1
compound,measurement,setting,value
O=c1[nH]c2ccccc2n1C1CCN(CCCC(c2ccc(F)cc2)c2ccc(F)cc2)CC1 [Pimozide] + Cc1cc(Nc2cc(N3CCN(C)CC3)nc(Sc3ccc(NC(=O)C4CC4)cc3)n2)n[nH]1 [Tozasertib] (partner 0.1 µM),relative viability,[1]; first compound 0.08 µM,0.465
same,relative viability,[1]; first compound 0.253 µM,0.548
same,relative viability,[1]; first compound 0.8 µM,0.427
same,relative viability,[1]; first compound 2.53 µM,0.471
same,relative viability,[1]; first compound 8 µM,0.422
same,relative viability,[2]; first compound 0.08 µM,0.173
same,relative viability,[2]; first compound 0.253 µM,0.178
same,relative viability,[2]; first compound 2.53 µM,0.167
same,relative viability,[2]; first compound 8 µM,0.171
same,relative viability,[3]; first compound 0.08 µM,0.132
same,relative viability,[3]; first compound 0.253 µM,0.273
same,relative viability,[3]; first compound 0.8 µM,0.133
same,relative viability,[3]; first compound 2.53 µM,0.194
same,relative viability,[3]; first compound 8 µM,0.174
same,relative viability,[4]; first compound 0.08 µM,0.22
same,relative viability,[4]; first compound 0.253 µM,0.235
same,relative viability,[4]; first compound 0.8 µM,0.24
same,relative viability,[4]; first compound 2.53 µM,0.212
same,relative viability,[4]; first compound 8 µM,0.211
same,relative viability,[5]; first compound 0.08 µM,0.336
same,relative viability,[5]; first compound 0.8 µM,0.319
same,relative viability,[5]; first compound 2.53 µM,0.371
same,relative viability,[5]; first compound 8 µM,0.327
same,relative viability,[6]; first compound 0.08 µM,0.35
same,relative viability,[6]; first compound 0.253 µM,0.321
same,relative viability,[6]; first compound 0.8 µM,0.36
same,relative viability,[6]; first compound 2.53 µM,0.315
same,relative viability,[6]; first compound 8 µM,0.388
same,relative viability,[7]; first compound 0.08 µM,0.262
same,relative viability,[7]; first compound 0.253 µM,0.232
same,relative viability,[7]; first compound 2.53 µM,0.233
same,relative viability,[7]; first compound 8 µM,0.195
same,relative viability,[8]; first compound 0.253 µM,0.387
same,relative viability,[8]; first compound 0.8 µM,0.368
same,relative viability,[8]; first compound 2.53 µM,0.385
same,relative viability,[8]; first compound 8 µM,0.405
same,relative viability,[9]; first compound 0.08 µM,0.193
same,relative viability,[9]; first compound 0.253 µM,0.241
same,relative viability,[9]; first compound 0.8 µM,0.33
same,relative viability,[9]; first compound 2.53 µM,0.176
same,relative viability,[9]; first compound 8 µM,0.189
same,relative viability,[10]; first compound 0.08 µM,0.0997
same,relative viability,[10]; first compound 0.253 µM,0.11
same,relative viability,[10]; first compound 0.8 µM,0.112
same,relative viability,[10]; first compound 2.53 µM,0.108
same,relative viability,[10]; first compound 8 µM,0.106
same,relative viability,[11]; first compound 0.08 µM,0.244
same,relative viability,[11]; first compound 0.253 µM,0.277
same,relative viability,[11]; first compound 0.8 µM,0.27
same,relative viability,[11]; first compound 2.53 µM,0.304
same,relative viability,[11]; first compound 8 µM,0.256
same,relative viability,[12]; first compound 0.08 µM,0.734
same,relative viability,[12]; first compound 0.253 µM,0.694
same,relative viability,[12]; first compound 0.8 µM,0.509
same,relative viability,[12]; first compound 2.53 µM,0.65
same,relative viability,[12]; first compound 8 µM,0.496
same,relative viability,[13]; first compound 0.08 µM,0.251
same,relative viability,[13]; first compound 0.253 µM,0.241
same,relative viability,[13]; first compound 0.8 µM,0.242
same,relative viability,[13]; first compound 2.53 µM,0.217
same,relative viability,[13]; first compound 8 µM,0.23
same,relative viability,[14]; first compound 0.08 µM,0.451
same,relative viability,[14]; first compound 0.253 µM,0.614
same,relative viability,[14]; first compound 0.8 µM,0.553
same,relative viability,[14]; first compound 2.53 µM,0.648
same,relative viability,[14]; first compound 8 µM,0.652
same,relative viability,[15]; first compound 0.08 µM,0.292
same,relative viability,[15]; first compound 0.253 µM,0.284
same,relative viability,[15]; first compound 0.8 µM,0.272
same,relative viability,[15]; first compound 2.53 µM,0.225
same,relative viability,[15]; first compound 8 µM,0.297
same,relative viability,[16]; first compound 0.08 µM,0.468
same,relative viability,[16]; first compound 0.253 µM,0.447
same,relative viability,[16]; first compound 0.8 µM,0.452
same,relative viability,[16]; first compound 2.53 µM,0.202
same,relative viability,[16]; first compound 8 µM,0.248
same,relative viability,[17]; first compound 0.08 µM,0.347
same,relative viability,[17]; first compound 0.253 µM,0.398
same,relative viability,[17]; first compound 0.8 µM,0.475
same,relative viability,[17]; first compound 2.53 µM,0.331
same,relative viability,[17]; first compound 8 µM,0.307
same,relative viability,[18]; first compound 0.253 µM,0.327
same,relative viability,[18]; first compound 0.8 µM,0.367
same,relative viability,[18]; first compound 2.53 µM,0.301
same,relative viability,[18]; first compound 8 µM,0.239
same,relative viability,[19]; first compound 0.08 µM,0.277
same,relative viability,[19]; first compound 0.253 µM,0.289
same,relative viability,[19]; first compound 2.53 µM,0.255
same,relative viability,[19]; first compound 8 µM,0.271
same,relative viability,[20]; first compound 0.08 µM,0.265
same,relative viability,[20]; first compound 0.253 µM,0.212
same,relative viability,[20]; first compound 0.8 µM,0.225
same,relative viability,[20]; first compound 2.53 µM,0.173
same,relative viability,[20]; first compound 8 µM,0.193
same,relative viability,[21]; first compound 0.08 µM,0.821
same,relative viability,[21]; first compound 0.253 µM,0.822
same,relative viability,[21]; first compound 0.8 µM,0.873
same,relative viability,[21]; first compound 2.53 µM,0.824
same,relative viability,[21]; first compound 8 µM,0.815
same,relative viability,[22]; first compound 0.08 µM,0.861
same,relative viability,[22]; first compound 0.253 µM,0.787
same,relative viability,[22]; first compound 0.8 µM,0.756
same,relative viability,[22]; first compound 2.53 µM,0.817
same,relative viability,[22]; first compound 8 µM,0.772
